# From PubChem BioAssay (NCI)
#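 How tested: cells in 96-well plates exposed to compound for 48 hours at five concentrations. At the GI50, growth is halved. TGI is the concentration that stops growth completely.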
# Tests used:
# Test in all cases: inhibition of tumour cell growth, NCI panel, 48 h
# [1] = tested on: 786-0 renal
# [2] = tested on: MDA-N
# [3] = tested on: UACC-257 melanoma
# [4] = tested on: NCI-H226 lung
# [5] = tested on: LOX IMVI melanoma
# [6] = tested on: NCI-H460 lung
# [7] = tested on: NCI-H23 lung
# [8] = tested on: MOLT-4 leukemia
# [9] = tested on: EKVX NSCLC
# [10] = tested on: HOP-92 NSCLC
# [11] = tested on: T-47D breast
# [12] = tested on: HT29 colon
# [13] = tested on: HCC-2998 colon
# [14] = tested on: HOP-62 NSCLC
# [15] = tested on: MCF7 breast
# [16] = tested on: PC-3 prostate
# [17] = tested on: CAKI-1 renal
# [18] = tested on: MDA-MB-231 breast
# [19] = tested on: COLO 205 colon
# [20] = tested on: MDA-MB-435
# [21] = tested on: HCT-15 colon
# [22] = tested on: SF-295 CNS
# [23] = tested on: UACC-62 melanoma
# [24] = tested on: UO-31 renal
# [25] = tested on: SF-539 CNS
# [26] = tested on: NCI/ADR-RES ovarian
# [27] = tested on: U251 CNS
# [28] = tested on: SNB-19 CNS
# [29] = tested on: SK-MEL-2 melanoma
# [30] = tested on: OVCAR-5 ovarian
# [31] = tested on: A549 NSCLC
# [32] = tested on: IGROV1 ovarian
# [33] = tested on: SW-620 colon
# [34] = tested on: SK-OV-3 ovarian
# [35] = tested on: TK-10 renal
# [36] = tested on: BT-549 breast
# [37] = tested on: HL-60(TB) leukemia
# [38] = tested on: SN12C renal
# [39] = tested on: M14 melanoma
# [40] = tested on: OVCAR-8 ovarian
# [41] = tested on: SNB-75 CNS
# [42] = tested on: OVCAR-3 ovarian
# [43] = tested on: ACHN renal
# [44] = tested on: SK-MEL-5 melanoma
# [45] = tested on: HCT-116 colon
# [46] = tested on: KM12 colon
# [47] = tested on: SK-MEL-28 melanoma
# [48] = tested on: DU-145 prostate
# [49] = tested on: RPMI-8226 leukemia
# [50] = tested on: RXF 393 renal
# [51] = tested on: CCRF-CEM leukemia
# [52] = tested on: SR leukemia
# [53] = tested on: A498 renal
# [54] = tested on: OVCAR-4 ovarian
# [55] = tested on: NCI-H522 lung
# [56] = tested on: SF-268 CNS
# [57] = tested on: MALME-3M melanoma
# [58] = tested on: K-562 leukemia
structure (smiles),measurement,setting,value
CC(=O)C1C(=O)C(=O)N(c2ccc(Cl)c(Cl)c2)C1=O (configuration not stated),TGI,[1],> 100000 nM
same,TGI,[2],> 100000 nM
same,TGI,[3],> 100000 nM
same,TGI,[4],> 100000 nM
same,TGI,[5],> 100000 nM
same,TGI,[6],> 100000 nM
same,TGI,[7],> 100000 nM
same,TGI,[8],> 100000 nM
same,TGI,[9],> 100000 nM
same,TGI,[10],> 100000 nM
same,TGI,[11],> 100000 nM
same,TGI,[12],> 100000 nM
same,TGI,[13],> 100000 nM
same,TGI,[14],> 100000 nM
same,TGI,[15],> 100000 nM
same,TGI,[16],> 100000 nM
same,TGI,[17],> 100000 nM
same,TGI,[18],> 100000 nM
same,TGI,[19],> 100000 nM
same,TGI,[20],> 100000 nM
same,TGI,[21],> 100000 nM
same,TGI,[22],> 100000 nM
same,TGI,[23],> 100000 nM
same,TGI,[24],> 100000 nM
same,TGI,[25],> 100000 nM
same,TGI,[26],> 100000 nM
same,TGI,[27],> 100000 nM
same,TGI,[28],> 100000 nM
same,TGI,[29],> 100000 nM
same,TGI,[30],> 100000 nM
same,TGI,[31],> 100000 nM
same,TGI,[32],> 100000 nM
same,TGI,[33],> 100000 nM
same,TGI,[34],> 100000 nM
same,TGI,[35],> 100000 nM
same,TGI,[36],> 100000 nM
same,TGI,[37],> 100000 nM
same,TGI,[38],> 100000 nM
same,TGI,[39],> 100000 nM
same,TGI,[40],> 100000 nM
same,TGI,[41],> 100000 nM
same,TGI,[42],> 100000 nM
same,TGI,[43],> 100000 nM
same,TGI,[44],> 100000 nM
same,TGI,[45],> 100000 nM
same,TGI,[46],> 100000 nM
same,TGI,[47],> 100000 nM
same,TGI,[48],> 100000 nM
C=CCc1cccc2cc(C(N)=O)c(=N)oc12,TGI,[1],> 100000 nM
same,TGI,[49],> 100000 nM
same,TGI,[2],> 100000 nM
same,TGI,[3],> 100000 nM
same,TGI,[4],> 100000 nM
same,TGI,[5],> 100000 nM
same,TGI,[6],> 100000 nM
same,TGI,[7],> 100000 nM
same,TGI,[8],> 100000 nM
same,TGI,[10],> 100000 nM
same,TGI,[11],> 100000 nM
same,TGI,[12],> 100000 nM
same,TGI,[13],> 100000 nM
same,TGI,[50],> 100000 nM
same,TGI,[14],> 100000 nM
same,TGI,[16],> 100000 nM
same,TGI,[17],> 100000 nM
same,TGI,[18],> 100000 nM
same,TGI,[19],> 100000 nM
same,TGI,[20],> 100000 nM
same,TGI,[21],> 100000 nM
same,TGI,[23],> 100000 nM
same,TGI,[26],> 100000 nM
same,TGI,[27],> 100000 nM
same,TGI,[28],> 100000 nM
same,TGI,[29],> 100000 nM
same,TGI,[30],> 100000 nM
same,TGI,[31],> 100000 nM
same,TGI,[32],90300 nM
same,TGI,[33],> 100000 nM
same,TGI,[34],> 100000 nM
same,TGI,[36],> 100000 nM
same,TGI,[37],> 100000 nM
same,TGI,[38],> 100000 nM
same,TGI,[51],> 100000 nM
same,TGI,[52],> 100000 nM
same,TGI,[39],> 100000 nM
same,TGI,[40],> 100000 nM
same,TGI,[41],> 100000 nM
same,TGI,[42],> 100000 nM
same,TGI,[43],> 100000 nM
same,TGI,[53],> 100000 nM
same,TGI,[44],> 100000 nM
same,TGI,[45],> 100000 nM
same,TGI,[46],> 100000 nM
same,TGI,[47],> 100000 nM
same,TGI,[54],> 100000 nM
same,TGI,[48],> 100000 nM
CC1OC(OC2C(O)CC(OC3C(O)CC(OC4CCC5(C)C(CCC6C5CCC5(C)C(C7=CC(=O)OC7)CCC65O)C4)OC3C)OC2C)CC(O)C1O (configuration not stated),GI50,[1],< 12.4 nM
same,TGI,[1],21.9 nM
same,TGI,[49],1470 nM
same,TGI,[2],138 nM
same,TGI,[3],219 nM
same,TGI,[4],174 nM
same,GI50,[5],< 12.1 nM
same,TGI,[5],58.7 nM
same,GI50,[6],< 11.6 nM
same,TGI,[6],< 18.7 nM
same,TGI,[7],51.7 nM
same,GI50,[8],165 nM
same,TGI,[9],80.9 nM
same,TGI,[10],190 nM
same,GI50,[11],56 nM
same,TGI,[11],1730 nM
same,TGI,[12],123 nM
same,TGI,[13],584 nM
same,TGI,[50],78.5 nM
same,TGI,[14],41.7 nM
same,TGI,[15],> 100000 nM
same,TGI,[16],170 nM
same,TGI,[17],52.7 nM
same,TGI,[18],786 nM
same,TGI,[19],142 nM
same,TGI,[20],147 nM
same,TGI,[21],86.7 nM
same,TGI,[22],99.8 nM
same,TGI,[55],22.4 nM
same,TGI,[23],152 nM
same,TGI,[24],151 nM
same,TGI,[25],21.9 nM
same,TGI,[56],61.4 nM
same,TGI,[26],293 nM
same,GI50,[27],< 17.7 nM
same,TGI,[27],46.7 nM
same,TGI,[28],304 nM
same,TGI,[29],447 nM
same,TGI,[30],148 nM
same,TGI,[31],29.5 nM
same,TGI,[32],542 nM
same,TGI,[33],282 nM
same,TGI,[34],143 nM
same,TGI,[35],87.6 nM
same,TGI,[57],75.6 nM
same,TGI,[36],61.8 nM
same,GI50,[37],45.1 nM
same,TGI,[37],415 nM
same,TGI,[38],130 nM
same,GI50,[39],95.6 nM
same,TGI,[39],268 nM
same,TGI,[58],204 nM
same,GI50,[40],< 18.7 nM
same,TGI,[40],70.8 nM
same,TGI,[41],653 nM
same,TGI,[42],48.5 nM
same,TGI,[43],106 nM
same,GI50,[53],< 10 nM
same,TGI,[53],30.1 nM
same,TGI,[44],62.4 nM
same,GI50,[45],11 nM
same,TGI,[45],100 nM
same,TGI,[46],209 nM
same,TGI,[47],423 nM
same,GI50,[48],< 12 nM
same,TGI,[48],< 20.4 nM
